# Literature values as cited in patent EP0073093A1, “4' Halo-substituted sucrose derivatives” (TATE & LYLE PUBLIC LIMITED COMPANY, priority 1981, dated 1983).
# Assays:
# [1] = qualitative
compound,measurement,setting,value
"2,6,1',6'-tetrachloro-2,6,1', 6'-tetradeoxy derivative",bittering power,[1]; comparable with that of quinine,potent bittering agent
"2,1'-dichloro-2,1'- dideoxy derivative",sweetness,"qualitative, prior-art sucrose derivatives",not sweet at all
O=C1NS(=O)(=O)c2ccccc21 [saccharin],times the sweetening power of sucrose,relative to sucrose,about 200 times
same,after-taste,[1],unpleasantly bitter after-taste
